Where “and” joins values, the source holds several entries; their conditions need not be identical. Equal entries are not always repeated. Toxic doses and inconclusive results are not listed. Rule as the data show it: active = T/C of 150% or more; inactive = T/C below 125%.
Test system: L1210 leukemia ip in BDF1 mice, survival T/C
Experiment: NCI In Vivo Anticancer Drug Screen. Data for tumor model L1210 Leukemia (intraperitoneal) in B6D2F1 (BDF1) mice
Details: endpoint: mean survival time, higher = longer survival
How it was run: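 Ratio derived from survival: compound-dosed mice over vehicle-dosed mice, all bearing a transplantable tumor.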

[1] = dose: 100.0 mg/kg/injection, schedule: Q01DX001 (ip), vehicle: Klucel (hydroxypropylcellulose) (HPC)
[2] = dose: 200.0 mg/kg/injection, schedule: Q01DX001 (ip), vehicle: Klucel (hydroxypropylcellulose) (HPC)
[3] = dose: 400.0 mg/kg/injection, schedule: Q01DX001 (ip), vehicle: Klucel (hydroxypropylcellulose) (HPC)
[4] = dose: 100.0 mg/kg/injection, schedule: Q04DX003 (ip), vehicle: Klucel (hydroxypropylcellulose) (HPC)
[5] = dose: 100.0 mg/kg/injection, schedule: Q04DX002 (ip), vehicle: Klucel (hydroxypropylcellulose) (HPC)
[6] = dose: 100.0 mg/kg/injection, schedule: Q01DX009 (ip), vehicle: saline with Tween-80
[7] = dose: 200.0 mg/kg/injection, schedule: Q01DX009 (ip), vehicle: saline with Tween-80
[8] = dose: 25.0 mg/kg/injection, schedule: Q04DX003 (ip), vehicle: Klucel (hydroxypropylcellulose) (HPC)
[9] = dose: 50.0 mg/kg/injection, schedule: Q04DX003 (ip), vehicle: Klucel (hydroxypropylcellulose) (HPC)
[10] = dose: 50.0 mg/kg/injection, schedule: Q01DX009 (ip), vehicle: saline with Tween-80
[11] = dose: 100.0 mg/kg/injection, schedule: Q04DX003 (ip), vehicle: saline with Tween-80

Measured: T/C

O=C(C(CO)C(CO)C(=O)N1Cc2cc3ccccc3nc2C1)N1Cc2cc3ccccc3nc2C1 (stereo unspecified)
inactive: [1] 103 % of control | [2] 95 % of control | [3] 92 % of control

COc1ccc(C2=C(c3ccccc3)C(c3ccccc3)=C(c3ccc(OC)cc3)C2=O)cc1
inactive: dose: 100.0 mg/kg/injection, schedule: Q01DX001 (ip), vehicle: carboxymethylcellulose (CMC) 89 % of control | dose: 200.0 mg/kg/injection, schedule: Q01DX001 (ip), vehicle: carboxymethylcellulose (CMC) 89 % of control | dose: 400.0 mg/kg/injection, schedule: Q01DX001 (ip), vehicle: carboxymethylcellulose (CMC) 91 % of control

C[P+](C)(c1ccccc1)c1ccccc1
inactive: dose: 3.12 mg/kg/injection, schedule: Q01DX009 (ip), vehicle: saline with Tween-80 108 % of control | dose: 6.25 mg/kg/injection, schedule: Q01DX009 (ip), vehicle: saline with Tween-80 101 % of control | dose: 12.5 mg/kg/injection, schedule: Q01DX009 (ip), vehicle: saline with Tween-80 97 % of control | dose: 12.5 mg/kg/injection, schedule: Q04DX003 (ip), vehicle: saline with Tween-80 102 % of control

CCCN(CCC)C(=S)CC
inactive: dose: 100.0 mg/kg/injection, schedule: Q04DX002 (ip), vehicle: saline with Tween-80 94 % of control | dose: 200.0 mg/kg/injection, schedule: Q04DX002 (ip), vehicle: saline with Tween-80 98 % of control

CC(=O)Oc1ccc(Cl)cc1C=O
inactive: dose: 100.0 mg/kg/injection, schedule: Q01DX001 (ip), vehicle: saline 105 % of control | dose: 200.0 mg/kg/injection, schedule: Q01DX001 (ip), vehicle: saline 103 % of control

O/N=C/Cc1ccccc1
inactive: dose: 100.0 mg/kg/injection, schedule: Q04DX002 (ip), vehicle: DMSO 103 % of control | dose: 200.0 mg/kg/injection, schedule: Q04DX002 (ip), vehicle: DMSO 123 % of control

O=C(Nc1cccc(Cl)c1)c1cc(N=Nc2ccc([N+](=O)[O-])cc2Cl)ccc1O
inactive: [4] 103 % of control | dose: 200.0 mg/kg/injection, schedule: Q04DX003 (ip), vehicle: Klucel (hydroxypropylcellulose) (HPC) 104 % of control

COc1cc(C(=O)Nc2ccccc2SC)cc(OC)c1OC
inactive: [5] 100 % of control | dose: 200.0 mg/kg/injection, schedule: Q04DX002 (ip), vehicle: Klucel (hydroxypropylcellulose) (HPC) 97 % of control | dose: 400.0 mg/kg/injection, schedule: Q04DX002 (ip), vehicle: Klucel (hydroxypropylcellulose) (HPC) 90 % of control

O=C(CNCc1ccccc1)Oc1c(Cl)c(Cl)c(Cl)c(Cl)c1Cl
inactive: dose: 100.0 mg/kg/injection, schedule: Q04DX003 (ip), vehicle: other 94 % of control | dose: 200.0 mg/kg/injection, schedule: Q04DX003 (ip), vehicle: other 93 % of control

CC(=O)N1CCN(C(C)=O)C1=S
inactive: [1] 96 % of control | [2] 95 % of control | [3] 98 % of control

CCOC(=O)CNCC(O)C(Cl)(Cl)Cl (stereo unspecified)
inactive: [6] 92 % of control | [7] 86 % of control

CC(=O)NC(C)(C)CC(C)(C)C
inactive: dose: 12.5 mg/kg/injection, schedule: Q01DX009 (ip), vehicle: Klucel (hydroxypropylcellulose) (HPC) 99 % of control | dose: 12.5 mg/kg/injection, schedule: Q04DX003 (ip), vehicle: Klucel (hydroxypropylcellulose) (HPC) 98 % of control | dose: 25.0 mg/kg/injection, schedule: Q01DX001 (ip), vehicle: saline with Tween-80 98 % of control | dose: 25.0 mg/kg/injection, schedule: Q01DX009 (ip), vehicle: Klucel (hydroxypropylcellulose) (HPC) 101 % of control | [8] 96 % of control | dose: 50.0 mg/kg/injection, schedule: Q01DX001 (ip), vehicle: saline with Tween-80 103 % of control | [9] 93 % of control | dose: 100.0 mg/kg/injection, schedule: Q01DX001 (ip), vehicle: saline with Tween-80 105 % of control and 119 % of control

COc1ccc(C2C3CCC(C3)C2N)cc1 (stereo unspecified)
inactive: dose: 5.0 mg/kg/injection, schedule: Q04DX003 (ip), vehicle: saline 100 % of control | dose: 10.0 mg/kg/injection, schedule: Q01DX009 (ip), vehicle: saline with Tween-80 93 % of control | dose: 10.0 mg/kg/injection, schedule: Q04DX003 (ip), vehicle: saline 100 % of control and 97 % of control | dose: 20.0 mg/kg/injection, schedule: Q01DX009 (ip), vehicle: saline with Tween-80 91 % of control | dose: 20.0 mg/kg/injection, schedule: Q04DX003 (ip), vehicle: saline 97 % of control | dose: 25.0 mg/kg/injection, schedule: Q01DX009 (ip), vehicle: saline with Tween-80 90 % of control | dose: 40.0 mg/kg/injection, schedule: Q04DX003 (ip), vehicle: saline 96 % of control | [10] 95 % of control | [6] 88 % of control | [11] 100 % of control

CCC(C)C(C#N)(CCN1CCCCC1)Cc1cccc2ccccc12 (stereo unspecified)
inactive: [8] 109 % of control | [9] 98 % of control | [6] 96 % of control | [4] 95 % of control

C[N+](C)(C)CCCCCCCC[N+](C)(C)CCCCCCCCCC[N+](C)(C)CCCCCCCC[N+](C)(C)C
inactive: dose: 23.0 micrograms/kg/injection, schedule: Q04DX003 (ip), vehicle: saline 97 % of control | dose: 45.0 micrograms/kg/injection, schedule: Q04DX003 (ip), vehicle: saline 105 % of control | dose: 90.0 micrograms/kg/injection, schedule: Q04DX003 (ip), vehicle: saline 103 % of control

CC(C)(C)CCSC(=N)N
inactive: dose: 25.0 mg/kg/injection, schedule: Q04DX003 (ip), vehicle: saline with Tween-80 98 % of control | dose: 50.0 mg/kg/injection, schedule: Q04DX003 (ip), vehicle: saline with Tween-80 102 % of control | [11] 96 % of control

C[CH2][Pb]([CH2]C)([CH2]C)[O]S(=O)(=O)c1ccc(C)cc1
inactive: dose: 1.56 mg/kg/injection, schedule: Q01DX009 (ip), vehicle: saline with Tween-80 95 % of control | dose: 3.13 mg/kg/injection, schedule: Q01DX009 (ip), vehicle: saline with Tween-80 96 % of control

CCOC(=O)CCSC
inactive: [10] 100 % of control | [6] 97 % of control | [11] 93 % of control | [7] 92 % of control | dose: 200.0 mg/kg/injection, schedule: Q04DX003 (ip), vehicle: saline with Tween-80 96 % of control

O=[N+]([O-])c1ccc(Nc2ccccc2)c([N+](=O)[O-])c1
inactive: dose: 50.0 mg/kg/injection, schedule: Q04DX002 (ip), vehicle: Klucel (hydroxypropylcellulose) (HPC) 103 % of control | [5] 92 % of control

NC(N)=NC(=O)COc1ccc(Cl)cc1Cl
inactive: dose: 100.0 mg/kg/injection, schedule: Q04DX002 (ip), vehicle: saline + alcohol 100 % of control | dose: 200.0 mg/kg/injection, schedule: Q04DX002 (ip), vehicle: saline + alcohol 107 % of control

O=[N+]([O-])c1cccc(NSNc2cccc([N+](=O)[O-])c2)c1
inactive: dose: 50.0 mg/kg/injection, schedule: Q01DX001 (ip), vehicle: Klucel (hydroxypropylcellulose) (HPC) 100 % of control | [1] 98 % of control | [2] 87 % of control

O=C(O)C(CSCc1ccccc1)NSc1ccccc1[N+](=O)[O-] (stereo unspecified)
inactive: [1] 105 % of control | dose: 100.0 mg/kg/injection, schedule: Q04DX003 (ip), vehicle: saline 97 % of control | [2] 105 % of control | dose: 200.0 mg/kg/injection, schedule: Q04DX003 (ip), vehicle: saline 95 % of control | [3] 101 % of control | dose: 400.0 mg/kg/injection, schedule: Q04DX003 (ip), vehicle: saline 106 % of control
